Source: paper PMC5471252, “Anti-leukemia activity of a Hsp70 inhibitor and its hybrid molecules” (Scientific Reports, 2017)

Tests used:
HL-60 and K562 cells = assay: Flow cytometry, JC-1 mitochondrial membrane potential; format: cell-based, human; settings: 24 h; 10 µM Az or 4 µM Az-O3-GD
Experimental: To determine whether Az promotes leukemia cell death via apoptosis, acute leukemia HL-60 and chronic leukemia K562 cells were independently incubated with Az. The treated cells were then exposed to a mixed solution of fluorescein-annexin V and propidium iodide (PI) and flow cytometry analysis was conducted. […] The size of the treated cells was also assessed by using flow cytometry. […] We also investigated if the mitochondrial membrane potential in cells treated with Az is disrupted. To test this possibility, HL-60 and K562 cells were exposed to Az and subsequently stained with a membrane potential sensitive JC-1 probe. […] This serves as another evidence for apoptosis induced by Az.
JC-1 staining: HL-60 and K562 cells were treated with each compound and then with 2.5 μg/mL JC-1 (Anaspec) in PBS for 15 min. Flow cytometry was conducted with a BD FACSVerse™ instrument (the red fluorescence signal: λex = 550 nm, λem = 600 nm; the green fluorescence signal: λex = 485 nm, λem = 535 nm) and the data were analyzed using a FlowJo™ software.

K562 cells = assay: MTT assay, cell viability of K562 cells; format: cell-based; settings: Homo sapiens, 48 h, mean ± s.d., n = 3, read-out: IC50 values of compounds for leukemia cells
[1] = test system: human leukemia cells (HL-60, KG-1, THP-1, U937, Jurkat and K562 cells); assay: MTT assay, all tested leukemia cells (summary statements); settings: Homo sapiens, 48 h, read-out: IC50 values, cytotoxic activities toward all the tested leukemia
Experimental: To assess anti-leukemia activity of Az, several human leukemia cells (HL-60 cells, acute myeloid leukemia; Jurkat cells, acute T-lymphocytic leukemia; KG-1 cells, acute myeloid leukemia; U937 cells, acute myeloid leukemia; THP-1 cells, acute monocytic leukemia; K562 cells, chronic myeloid leukemia) were incubated with Az for 48 h. […] An MTT assay was then performed to measure cell viabilities.
Cells were exposed to each compound (a HCl salt form) at various concentrations for indicated time periods (24 or 48 h) in culture media. MTT assays were conducted according to known procedures. The absorbance at 570 nm was determined by employing a microplate reader (TECAN, Infinite® 200 PRO).

HL-60 cells = assay: MTT assay, cell viability of HL-60 cells; format: cell-based; settings: Homo sapiens, 48 h, mean ± s.d., n = 3, read-out: IC50 values of compounds for leukemia cells
U937 cells = assay: MTT assay, cell viability of U937 cells; format: cell-based; settings: Homo sapiens, U-937, 48 h, mean ± s.d., n = 3, read-out: IC50 values of compounds for leukemia cells
[2] = test system: caspase activity of HL-60 and K562 cells; assay: Caspase activity assay with Ac-DEVD-pNA in cell lysates; format: cell-based, human; settings: lysates of cells treated 24 h
Experimental: Because Az inhibits the association of Hsp70 with Apaf-1, caspase associated proteolytic activities should increase in cells treated with Az. To determine whether this event occurs, caspase activities of HL-60 and K562 cells treated with Az were measured by using the colorimetric substrate, Ac-DEVD-pNA (pNA, p-nitroaniline). […] We also examined whether leukemia cells are protected from the effect of Az by ZVAD-FMK (benzyloxycarbonyl-Val-Ala-Asp(OMe) fluoromethyl ketone, a cell-permeable inhibitor of pan-caspases). HL-60 and K562 cells were pre-incubated with ZVAD-FMK for 3 h and subsequently exposed to Az.
HL-60 and K562 cells treated with each compound for 24 h were lysed in a buffer containing 50 mM HEPES (pH 7.4), 5 mM CHAPS and 5 mM DTT. Assay buffer containing 20 mM HEPES (pH 7.4), 0.01% CHAPS, 5 mM DTT and 2 mM EDTA was added to cell lysates. Caspase activity was measured in the absence or presence of acetyl-DEVD-pNA (200 μM) (Sigma-Aldrich) by using a microplate reader (monitored at 405 nm).

[3] = biological target: T1, ATPase domain (1-386 residues) of human Hsc70 (Homo sapiens, UniProt P11142); assay: STD NMR competition with ATP-γ-S; format: binding; settings: ATP-γ-S in place of ATP, Az phosphate salt form
T1 construct: pET28a-human Hsc70 ATPase domain (1-386 residues); inferred from the pET28a vector and nickel-column purification; made in house; host or cells: E. coli BL21 (DE3)
Experimental: However, the detailed mode of Az binding to the proteins has not been elucidated. To gain information about the molecular basis of Az binding to Hsp70 proteins, NMR studies were carried out on a complex of Az with an ATPase domain (1-386 residues) of human Hsc70. Saturation transfer difference (STD) NMR studies were conducted initially to obtain information on Az binding to the ATPase domain of Hsc70[30]. […] Next, we evaluated whether Az affects binding of ATP to the ATPase domain. For STD experiments, less hydrolytic ATP-γ-S was used in place of ATP.
For STD experiments, 10 μM of an ATPase domain of Hsc70, 1 mM of ATP-γ-S and Az (a phosphate salt form) were used. For competition studies between ATP-γ-S and Az, STD of the sample with 5 μM ATPase domain of Hsc70 and 500 μM ATP-γ-S was initially measured, and further titrated with Az up to 1 mM. The ratios of ATP-γ-S to Az were 1:0, 1:1, 1:1.5, and 1:2. All STD NMR spectra were obtained using 20 mM solutions of deuterated Tris buffer with 5% (v/v) DMSO-d6 (pD 7.2).

[4] = biological target: T2, interaction of Hsp70 with Apaf-1 in HL-60 and K562 cells (Homo sapiens, UniProt P0DMV8); assay: Immunoprecipitation of Hsp70/Apaf-1 complex with Hsp70 antibody; format: cell-based; settings: cells treated 24 h, co-immunoprecipitation
T2 construct: endogenous in cells; host or cells: HL-60 and K562 cells
Experimental: With this information in mind, we tested if Az enhances the cytochrome c release from mitochondria into the cytosol in leukemia cells. The levels of cytochrome c in cytosolic and mitochondrial fractions of HL-60 and K562 cells after treatment with Az were determined by using western blot analysis. […] We next determined if the binding of Hsp70 to Apaf-1 is suppressed by Az during apoptosis. For this purpose, HL-60 and K562 cells were exposed to Az, and a complex of Hsp70 and Apaf-1 was then immunoprecipitated with Hsp70 antibody.
Supplementary Figure S9. Az blocks association of Hsp70 with Apaf-1. (a) HL-60 and K562 cells were treated with Az for 24 h, and the amount of Hsp70, Hsc70 and Apaf-1 was measured by western blot. […] (b) HL-60 and K562 cells were treated with Az for 24 h. Immunoprecipitation was performed with a Hsp70 antibody, and the amount of co-precipitated Apaf-1 was determined by western blot.

T2 sequence (P0DMV8 whole entry): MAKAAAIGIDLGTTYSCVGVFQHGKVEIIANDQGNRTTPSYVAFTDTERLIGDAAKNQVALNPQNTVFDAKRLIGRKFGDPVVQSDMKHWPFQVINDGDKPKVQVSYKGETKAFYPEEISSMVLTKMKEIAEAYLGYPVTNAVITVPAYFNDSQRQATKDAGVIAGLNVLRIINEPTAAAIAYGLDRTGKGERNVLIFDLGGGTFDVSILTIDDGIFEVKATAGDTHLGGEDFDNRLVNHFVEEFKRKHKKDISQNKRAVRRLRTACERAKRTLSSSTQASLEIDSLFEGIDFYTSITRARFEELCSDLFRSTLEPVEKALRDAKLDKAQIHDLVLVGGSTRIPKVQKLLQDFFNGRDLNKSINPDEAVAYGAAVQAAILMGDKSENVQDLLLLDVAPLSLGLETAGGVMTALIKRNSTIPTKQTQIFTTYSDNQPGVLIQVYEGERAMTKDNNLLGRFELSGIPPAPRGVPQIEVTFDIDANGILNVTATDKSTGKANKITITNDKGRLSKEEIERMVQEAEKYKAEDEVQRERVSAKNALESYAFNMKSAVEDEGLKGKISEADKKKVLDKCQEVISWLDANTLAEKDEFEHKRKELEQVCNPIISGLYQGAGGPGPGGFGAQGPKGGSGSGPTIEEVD
T1 sequence (P11142 1-386): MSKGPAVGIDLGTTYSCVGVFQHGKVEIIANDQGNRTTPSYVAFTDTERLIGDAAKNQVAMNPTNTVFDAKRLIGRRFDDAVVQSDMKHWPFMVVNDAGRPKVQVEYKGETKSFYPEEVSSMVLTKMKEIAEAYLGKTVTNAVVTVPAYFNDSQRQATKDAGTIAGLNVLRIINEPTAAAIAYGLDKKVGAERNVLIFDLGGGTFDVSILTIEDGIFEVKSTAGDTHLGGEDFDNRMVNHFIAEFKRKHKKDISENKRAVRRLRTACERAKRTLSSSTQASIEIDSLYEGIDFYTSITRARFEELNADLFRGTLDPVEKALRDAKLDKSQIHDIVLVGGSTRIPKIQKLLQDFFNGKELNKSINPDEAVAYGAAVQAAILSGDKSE

## COc1ccc(-c2nc(-c3cc(C(F)(F)F)cc(C(F)(F)F)c3)n(Cc3ccc(C(=O)NCCOCCOCCN)cc3)c2-c2ccc(OC)cc2)cc1 [Az, apoptozole]
HL-60 and K562 cells
  mitochondrial membrane potential, JC-1 red fluorescence: reduction of the mitochondrial membrane potential
K562 cells
  IC50: 3.6 ± 0.52 µM
[1]
  IC50: 2 to 5 µM
HL-60 cells
  IC50: 2.8 ± 0.87 µM
U937 cells
  IC50: 4.7 ± 0.77 µM
[2]
  caspase activity of treated cells: increase
[3]
  effect on binding of ATP to the ATPase domain: blocks ATP binding
[4]
  interaction of Hsp70 with Apaf-1: inhibits the interaction of Hsp70 with Apaf-1
